ChEMBL document CHEMBL5465560, “Selectivity Literature for EUbOPEN Chemogenomic Library” (2024)

Tests used:
[1] = biological target: Macrophage colony-stimulating factor 1 receptor (Homo sapiens) (UniProt P07333); assay: Selectivity interaction (Millipore kinase profiler) EUB0000124b CSF1R; conditions: at 10 µM
[2] = biological target: T1, Muscarinic acetylcholine receptor M1 (Homo sapiens) (UniProt P11229); assay: Selectivity interaction (Safety Panel 44tm (Eurofins)) EUB0000162b CHRM1; conditions: at 10 µM
T1 sequence (whole entry): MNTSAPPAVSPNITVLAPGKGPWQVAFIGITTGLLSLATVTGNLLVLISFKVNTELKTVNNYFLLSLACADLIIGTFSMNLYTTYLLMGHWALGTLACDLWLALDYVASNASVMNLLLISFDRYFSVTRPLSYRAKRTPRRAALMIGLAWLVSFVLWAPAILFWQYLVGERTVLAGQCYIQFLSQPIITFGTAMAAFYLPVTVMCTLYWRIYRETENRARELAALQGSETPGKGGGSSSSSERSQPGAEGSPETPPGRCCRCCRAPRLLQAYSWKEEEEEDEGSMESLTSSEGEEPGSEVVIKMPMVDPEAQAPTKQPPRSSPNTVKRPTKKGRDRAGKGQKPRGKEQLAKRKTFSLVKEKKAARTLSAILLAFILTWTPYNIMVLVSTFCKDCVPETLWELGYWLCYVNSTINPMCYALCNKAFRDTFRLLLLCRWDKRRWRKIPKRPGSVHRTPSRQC

[3] = biological target: Serine/threonine-protein kinase PAK 3 (Homo sapiens) (UniProt O75914); assay: Selectivity interaction (KinomeScan (DiscoverX)) EUB0000666a PAK3; conditions: at 10 µM
Sequence of Serine/threonine-protein kinase PAK 3 (Homo sapiens) (O75914 whole entry, looked up): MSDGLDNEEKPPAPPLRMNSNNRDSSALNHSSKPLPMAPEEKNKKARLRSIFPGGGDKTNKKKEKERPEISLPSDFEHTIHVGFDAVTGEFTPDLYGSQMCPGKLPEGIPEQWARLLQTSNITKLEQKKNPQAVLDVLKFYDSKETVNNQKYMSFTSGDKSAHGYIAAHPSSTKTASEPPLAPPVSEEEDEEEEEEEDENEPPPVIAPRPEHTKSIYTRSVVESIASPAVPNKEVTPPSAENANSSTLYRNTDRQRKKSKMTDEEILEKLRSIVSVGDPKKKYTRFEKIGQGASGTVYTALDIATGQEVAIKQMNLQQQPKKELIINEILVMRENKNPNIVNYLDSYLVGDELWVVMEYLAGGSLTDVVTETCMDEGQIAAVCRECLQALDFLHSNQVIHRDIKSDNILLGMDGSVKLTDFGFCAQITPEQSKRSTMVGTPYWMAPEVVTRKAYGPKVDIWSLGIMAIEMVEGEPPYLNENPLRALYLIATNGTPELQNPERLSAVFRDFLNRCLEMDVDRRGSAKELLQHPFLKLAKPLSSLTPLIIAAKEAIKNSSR

[4] = biological target: Serine/threonine-protein kinase N1 (Homo sapiens, UniProt Q16512); assay: Selectivity interaction (Kinase panel (KiNativ target engagement assay in Jurkat cells)) EUB0001635a PKN1; type: cell-based; conditions: Selectivity number of off-targets 0.0, Selectivity number of targets 233.0, Source Knowledge https://www.sciencedirect.com/science/article/pii/S2451945619300674?via%3Dihub, at 1 µM
Sequence of Serine/threonine-protein kinase N1 (Q16512 2-942 limits assumed): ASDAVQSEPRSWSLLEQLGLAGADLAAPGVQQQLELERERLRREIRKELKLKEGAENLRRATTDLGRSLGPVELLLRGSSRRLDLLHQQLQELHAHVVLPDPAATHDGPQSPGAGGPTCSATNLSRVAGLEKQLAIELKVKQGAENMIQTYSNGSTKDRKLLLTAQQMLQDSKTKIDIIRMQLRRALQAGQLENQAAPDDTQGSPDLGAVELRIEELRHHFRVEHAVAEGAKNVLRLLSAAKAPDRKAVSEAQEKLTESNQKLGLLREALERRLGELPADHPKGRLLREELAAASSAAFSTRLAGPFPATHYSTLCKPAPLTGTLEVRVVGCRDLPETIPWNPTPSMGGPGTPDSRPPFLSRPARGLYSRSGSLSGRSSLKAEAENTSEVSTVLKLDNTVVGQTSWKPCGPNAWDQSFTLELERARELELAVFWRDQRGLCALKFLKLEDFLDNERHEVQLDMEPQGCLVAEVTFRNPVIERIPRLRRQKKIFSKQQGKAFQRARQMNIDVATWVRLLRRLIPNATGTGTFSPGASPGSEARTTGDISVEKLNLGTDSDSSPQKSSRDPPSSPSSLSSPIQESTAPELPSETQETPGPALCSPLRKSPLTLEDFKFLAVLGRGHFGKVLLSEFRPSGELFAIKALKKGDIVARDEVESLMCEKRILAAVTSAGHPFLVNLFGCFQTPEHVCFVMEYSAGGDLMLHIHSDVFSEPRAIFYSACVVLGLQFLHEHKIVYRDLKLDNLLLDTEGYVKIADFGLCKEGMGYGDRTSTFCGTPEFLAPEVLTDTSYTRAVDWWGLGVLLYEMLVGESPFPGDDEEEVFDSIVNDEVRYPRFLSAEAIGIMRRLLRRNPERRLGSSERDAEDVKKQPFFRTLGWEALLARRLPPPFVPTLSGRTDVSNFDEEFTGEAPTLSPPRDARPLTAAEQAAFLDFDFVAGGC

[5] = biological target: Phosphatidylinositol 4-phosphate 5-kinase type-1 alpha (Homo sapiens) (UniProt Q99755); conditions: at 10 µM
[6] = biological target: T2, Phosphatidylinositol 5-phosphate 4-kinase type-2 gamma (Homo sapiens) (UniProt Q8TBX8); assay: Selectivity interaction (KinomeScan (DiscoverX)) EUB0000092b PIP4K2C; conditions: at 10 µM
T2 sequence (whole entry): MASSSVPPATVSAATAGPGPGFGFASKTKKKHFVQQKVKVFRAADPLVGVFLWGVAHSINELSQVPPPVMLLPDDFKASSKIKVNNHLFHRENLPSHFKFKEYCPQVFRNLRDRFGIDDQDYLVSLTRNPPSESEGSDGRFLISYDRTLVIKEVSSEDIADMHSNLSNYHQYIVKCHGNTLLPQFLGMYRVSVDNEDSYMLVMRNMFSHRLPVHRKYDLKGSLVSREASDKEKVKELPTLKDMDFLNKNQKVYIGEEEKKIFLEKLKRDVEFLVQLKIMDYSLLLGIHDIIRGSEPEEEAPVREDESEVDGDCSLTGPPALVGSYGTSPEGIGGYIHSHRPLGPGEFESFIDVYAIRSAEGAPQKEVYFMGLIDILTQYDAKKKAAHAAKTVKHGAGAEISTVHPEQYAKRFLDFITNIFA

[7] = biological target: Protein kinase C theta type (Homo sapiens, UniProt Q04759); assay: Selectivity interaction (Kinase screening (Upstate/Millipore)) EUB0000604a PRKCQ
[8] = biological target: Ribosomal protein S6 kinase alpha-5 (Homo sapiens) (UniProt O75582); assay: Selectivity interaction (KinomeScan (DiscoverX)) EUB0000045b RPS6KA5
Sequence of Ribosomal protein S6 kinase alpha-5 (Homo sapiens) (O75582 whole entry, looked up): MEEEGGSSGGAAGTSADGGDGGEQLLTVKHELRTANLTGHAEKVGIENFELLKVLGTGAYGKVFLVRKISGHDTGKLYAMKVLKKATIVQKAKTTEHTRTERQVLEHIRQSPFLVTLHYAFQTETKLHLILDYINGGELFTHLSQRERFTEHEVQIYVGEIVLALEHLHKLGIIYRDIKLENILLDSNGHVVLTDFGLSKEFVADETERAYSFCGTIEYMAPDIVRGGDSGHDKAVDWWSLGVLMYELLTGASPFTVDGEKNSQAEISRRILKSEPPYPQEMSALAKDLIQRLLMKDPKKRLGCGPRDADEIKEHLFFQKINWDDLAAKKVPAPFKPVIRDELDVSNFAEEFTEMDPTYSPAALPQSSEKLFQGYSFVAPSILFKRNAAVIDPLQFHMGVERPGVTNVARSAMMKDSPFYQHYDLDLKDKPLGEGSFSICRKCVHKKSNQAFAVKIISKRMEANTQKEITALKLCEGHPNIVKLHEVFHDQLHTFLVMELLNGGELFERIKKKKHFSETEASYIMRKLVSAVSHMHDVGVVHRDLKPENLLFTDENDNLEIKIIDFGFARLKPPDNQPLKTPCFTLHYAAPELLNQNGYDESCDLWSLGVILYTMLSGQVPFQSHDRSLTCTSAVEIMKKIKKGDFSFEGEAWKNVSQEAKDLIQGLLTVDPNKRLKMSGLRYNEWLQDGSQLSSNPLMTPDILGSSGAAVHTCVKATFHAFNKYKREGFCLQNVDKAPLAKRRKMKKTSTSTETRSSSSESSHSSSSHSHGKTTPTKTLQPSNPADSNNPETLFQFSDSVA

[9] = test system: Fibroblast growth factor receptor 3 (Homo sapiens), P22607 [G697C]; assay: (§1) Selectivity interaction (KinomeScan (DiscoverX)) EUB0000618a FGFR3; conditions: at 10 µM
[10] = biological target: Fibroblast growth factor receptor 3 (Homo sapiens, UniProt P22607); assay: as §1; conditions: at 10 µM
Sequence of Fibroblast growth factor receptor 3 (P22607 23-806 limits assumed): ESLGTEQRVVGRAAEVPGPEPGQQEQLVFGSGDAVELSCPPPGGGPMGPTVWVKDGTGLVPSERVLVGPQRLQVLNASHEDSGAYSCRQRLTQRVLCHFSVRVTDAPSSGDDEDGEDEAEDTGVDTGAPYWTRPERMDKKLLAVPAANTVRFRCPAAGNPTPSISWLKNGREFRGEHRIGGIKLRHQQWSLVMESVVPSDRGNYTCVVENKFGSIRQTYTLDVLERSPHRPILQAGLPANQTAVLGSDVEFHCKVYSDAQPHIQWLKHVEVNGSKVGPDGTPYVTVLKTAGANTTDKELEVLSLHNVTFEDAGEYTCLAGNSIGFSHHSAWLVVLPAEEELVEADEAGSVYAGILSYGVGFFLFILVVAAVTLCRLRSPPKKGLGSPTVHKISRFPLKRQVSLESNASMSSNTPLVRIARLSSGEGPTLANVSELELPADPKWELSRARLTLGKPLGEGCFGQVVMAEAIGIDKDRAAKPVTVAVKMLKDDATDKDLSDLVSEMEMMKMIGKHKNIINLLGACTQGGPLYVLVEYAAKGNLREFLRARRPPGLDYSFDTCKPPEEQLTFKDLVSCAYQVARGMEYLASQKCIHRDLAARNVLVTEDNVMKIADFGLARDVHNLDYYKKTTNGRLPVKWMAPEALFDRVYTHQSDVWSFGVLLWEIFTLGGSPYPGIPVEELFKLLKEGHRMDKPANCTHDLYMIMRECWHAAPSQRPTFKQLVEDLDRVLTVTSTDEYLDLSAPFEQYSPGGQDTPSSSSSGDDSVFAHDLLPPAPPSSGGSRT

[11] = biological target: Ribosomal protein S6 kinase alpha-6 (Homo sapiens, UniProt Q9UK32); conditions: at 10 µM
Sequence of Ribosomal protein S6 kinase alpha-6 (Q9UK32 whole entry): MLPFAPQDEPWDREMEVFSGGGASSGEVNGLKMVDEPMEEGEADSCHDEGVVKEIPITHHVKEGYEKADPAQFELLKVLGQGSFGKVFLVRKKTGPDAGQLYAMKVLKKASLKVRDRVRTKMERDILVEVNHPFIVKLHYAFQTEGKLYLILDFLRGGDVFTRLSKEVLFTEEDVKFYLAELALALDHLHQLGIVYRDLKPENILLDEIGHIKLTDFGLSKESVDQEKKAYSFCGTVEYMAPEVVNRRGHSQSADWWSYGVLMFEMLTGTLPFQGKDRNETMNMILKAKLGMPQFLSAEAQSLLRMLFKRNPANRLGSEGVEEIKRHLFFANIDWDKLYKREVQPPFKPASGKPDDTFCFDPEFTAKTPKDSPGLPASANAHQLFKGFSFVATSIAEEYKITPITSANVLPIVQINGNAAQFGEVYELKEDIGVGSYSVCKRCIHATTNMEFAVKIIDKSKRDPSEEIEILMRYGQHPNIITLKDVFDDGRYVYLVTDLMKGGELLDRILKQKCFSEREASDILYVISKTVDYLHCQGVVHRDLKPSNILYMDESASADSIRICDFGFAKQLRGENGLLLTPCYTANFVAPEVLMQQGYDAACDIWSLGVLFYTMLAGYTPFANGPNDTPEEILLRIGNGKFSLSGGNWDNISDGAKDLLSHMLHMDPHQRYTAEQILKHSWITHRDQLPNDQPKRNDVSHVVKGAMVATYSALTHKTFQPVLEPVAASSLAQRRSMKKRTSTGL

[12] = biological target: Ribosomal protein S6 kinase alpha-3 (Homo sapiens, UniProt P51812); assay: Selectivity interaction (ActivX KiNativ screen (ex vivo kinase selectivity in human PBMCs)) EUB0001619a RPS6KA3; type: cell-based; conditions: PBMC, at 1 µM
[13] = biological target: T3, Serine/threonine-protein kinase TNNI3K (Homo sapiens) (UniProt Q59H18); assay: Selectivity interaction (KinomeScan (DiscoverX)) EUB0001619a TNNI3K; conditions: at 1 µM
T3 sequence (whole entry): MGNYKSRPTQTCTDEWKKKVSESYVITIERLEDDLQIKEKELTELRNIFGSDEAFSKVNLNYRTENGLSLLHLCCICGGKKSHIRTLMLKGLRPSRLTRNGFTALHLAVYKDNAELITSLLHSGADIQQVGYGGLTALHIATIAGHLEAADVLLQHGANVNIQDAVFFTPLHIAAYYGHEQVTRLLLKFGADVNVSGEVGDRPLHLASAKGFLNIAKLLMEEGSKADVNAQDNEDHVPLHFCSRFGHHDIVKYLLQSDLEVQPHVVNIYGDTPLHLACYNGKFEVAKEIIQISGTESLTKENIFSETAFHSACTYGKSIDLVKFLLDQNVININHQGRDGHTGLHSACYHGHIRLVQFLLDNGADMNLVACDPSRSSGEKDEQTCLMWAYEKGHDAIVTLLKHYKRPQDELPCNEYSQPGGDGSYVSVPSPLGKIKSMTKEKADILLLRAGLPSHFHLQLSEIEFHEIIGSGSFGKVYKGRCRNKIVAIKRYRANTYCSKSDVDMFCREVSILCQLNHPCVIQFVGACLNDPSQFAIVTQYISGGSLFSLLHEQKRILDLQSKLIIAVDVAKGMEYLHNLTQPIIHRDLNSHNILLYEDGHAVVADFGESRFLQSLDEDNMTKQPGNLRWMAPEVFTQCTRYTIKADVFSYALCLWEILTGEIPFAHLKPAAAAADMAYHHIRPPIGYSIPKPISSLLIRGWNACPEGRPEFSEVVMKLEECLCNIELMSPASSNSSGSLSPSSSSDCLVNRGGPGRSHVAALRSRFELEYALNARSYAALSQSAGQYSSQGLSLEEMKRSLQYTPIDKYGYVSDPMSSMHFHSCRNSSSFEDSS

[14] = test system: Tyrosine-protein kinase ABL1 (Homo sapiens), P00519 [E255K]; assay: (§2) Selectivity interaction (Kinase panel (Z-LYTE Assay)) EUB0001632a ABL1; conditions: at 10 µM
[15] = test system: Tyrosine-protein kinase ABL1 (Homo sapiens), P00519 [F317I]; assay: as §2; conditions: at 10 µM
[16] = test system: Tyrosine-protein kinase ABL1 (Homo sapiens), P00519 [G250E]; assay: as §2; conditions: at 10 µM
[17] = test system: Tyrosine-protein kinase ABL1 (Homo sapiens), P00519 [T315I]; assay: as §2; conditions: at 10 µM
[18] = test system: Tyrosine-protein kinase ABL1 (Homo sapiens), P00519 [Y253F]; assay: as §2; conditions: at 10 µM
[19] = biological target: Tyrosine-protein kinase ABL1 (Homo sapiens, UniProt P00519); assay: as §2; conditions: at 10 µM

Sequence of Macrophage colony-stimulating factor 1 receptor (Homo sapiens) (P07333 whole entry): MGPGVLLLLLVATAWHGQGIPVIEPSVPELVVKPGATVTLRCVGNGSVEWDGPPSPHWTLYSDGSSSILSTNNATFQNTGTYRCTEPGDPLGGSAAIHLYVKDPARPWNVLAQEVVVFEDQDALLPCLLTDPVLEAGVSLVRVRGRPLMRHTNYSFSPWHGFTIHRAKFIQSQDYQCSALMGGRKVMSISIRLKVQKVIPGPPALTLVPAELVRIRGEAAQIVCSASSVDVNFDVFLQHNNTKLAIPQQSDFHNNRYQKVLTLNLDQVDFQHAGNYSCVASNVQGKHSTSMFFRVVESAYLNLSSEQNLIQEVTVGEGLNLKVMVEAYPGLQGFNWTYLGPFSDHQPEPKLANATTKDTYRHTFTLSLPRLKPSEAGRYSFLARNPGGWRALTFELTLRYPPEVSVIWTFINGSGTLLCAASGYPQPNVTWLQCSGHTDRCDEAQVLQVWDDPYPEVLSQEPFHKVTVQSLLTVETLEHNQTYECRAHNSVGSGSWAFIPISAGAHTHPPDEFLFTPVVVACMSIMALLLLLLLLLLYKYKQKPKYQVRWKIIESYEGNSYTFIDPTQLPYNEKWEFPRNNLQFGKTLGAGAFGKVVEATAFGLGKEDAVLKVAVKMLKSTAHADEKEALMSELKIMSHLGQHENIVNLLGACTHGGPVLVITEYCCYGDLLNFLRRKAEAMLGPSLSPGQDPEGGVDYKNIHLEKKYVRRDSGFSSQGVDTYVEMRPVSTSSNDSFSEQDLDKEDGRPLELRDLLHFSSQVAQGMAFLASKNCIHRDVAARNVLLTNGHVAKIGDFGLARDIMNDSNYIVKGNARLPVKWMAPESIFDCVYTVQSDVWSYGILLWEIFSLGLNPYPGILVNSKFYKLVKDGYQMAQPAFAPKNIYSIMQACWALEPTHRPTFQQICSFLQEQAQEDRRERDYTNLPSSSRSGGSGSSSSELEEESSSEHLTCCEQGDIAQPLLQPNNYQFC

With `CC(=O)Nc1cccc(-n2c(=O)n(C3CC3)c(=O)c3c(Nc4ccc(I)cc4F)n(C)c(=O)c(C)c32)c1` the % of control [1] was 128%.

Compound `CN(C)C(=O)Cn1cc(-c2ccc(-c3cncc4ccccc34)cc2)cn1` has a % of control [2] of 87%.

Compound `O=C(NOC[C@H](O)CO)c1ccc(F)c(F)c1Nc1ccc(I)cc1F` has a % of control [3] of 100%.

`C=CC(=O)Nc1ccc(C(=O)Nc2[nH]nc3c2CN(C(=O)N[C@H](CN(C)C)c2ccccc2)C3(C)C)cc1` was tested, and the % of engagement [4] was -7.3%.

In the case of `COCC(=O)NC/C=C/c1ccc2ncnc(Nc3ccc(Oc4ccc(C)nc4)c(C)c3)c2c1` [CP-724714], the % of control [5] is reported as 88%.

For `CCC(=O)N1CCN(c2ccc(-n3c(=O)ccc4cnc5ccc(-c6cnc7ccccc7c6)cc5c43)cc2C(F)(F)F)CC1`, the % of control [6] was 58%.

Work on `Cc1cnc(Nc2ccc(F)cc2Cl)nc1-c1c[nH]c(C(=O)N[C@H](CO)c2cccc(Cl)c2)c1` yielded a % of inhibition [7] of 17%.

With `C=CC(=O)Nc1cc(-n2c(=O)ccc3cnc4ccc(-c5ccc(NS(C)(=O)=O)cc5)cc4c32)ccc1C` the % of control ([8]; at 1 µM) was 100% and the % of control ([8]; at 10 µM) was 100%.

In the case of `O[C@H]1CC[C@H](Nc2ncc3nc(Nc4c(F)cc(F)cc4F)n([C@H]4CCOC4)c3n2)CC1`, the % of control [9] is reported as 82% and the % of control [10] is reported as 88%.

`Cc1cc([C@@H](C)Nc2ccccc2C(=O)O)c2nc(N3CCOCC3)cc(=O)n2c1` [AZD-6482] showed a % of control [11] of 100%.

For `N#Cc1cccc(-c2c[nH]c3ncnc(N4CCOCC4)c23)c1`, the % of inhibition [12] was 21% and the % of control [13] was 74%.

`Cn1cc(-n2cnc3c(NCc4nc5cc(Cl)c(Cl)cc5[nH]4)nc(N4CCOCC4)nc32)cn1` showed a % of control [14] of -3.74%, a % of control [15] of 1.78% and a % of control [16] of 2.49%. For the same compound, the % of control [17] was -2.31%, the % of control [18] was 2.36% and the % of control [19] was -6.52%.
